Earlier results on two molecules are cited in publication PMC13584777, “Synthesis, Conformational Analysis, and Evaluation of 6R- and 6S‑Methylmannoimidazoles as Mannosidase Inhibitors” (ACS Omega, 2026).

The structures appear in SMILES notation.

The target of this series is T1, BtMan2A (Bacteroides thetaiotaomicron, UniProt Q8AAK6).
T1 construct: purchased NZYTech CZ0810
The settings on record: Figure 3, authors' earlier study of the 1-deoxymannojirimycin series.

T1 sequence (Q8AAK6 entry or part of it, change not shown): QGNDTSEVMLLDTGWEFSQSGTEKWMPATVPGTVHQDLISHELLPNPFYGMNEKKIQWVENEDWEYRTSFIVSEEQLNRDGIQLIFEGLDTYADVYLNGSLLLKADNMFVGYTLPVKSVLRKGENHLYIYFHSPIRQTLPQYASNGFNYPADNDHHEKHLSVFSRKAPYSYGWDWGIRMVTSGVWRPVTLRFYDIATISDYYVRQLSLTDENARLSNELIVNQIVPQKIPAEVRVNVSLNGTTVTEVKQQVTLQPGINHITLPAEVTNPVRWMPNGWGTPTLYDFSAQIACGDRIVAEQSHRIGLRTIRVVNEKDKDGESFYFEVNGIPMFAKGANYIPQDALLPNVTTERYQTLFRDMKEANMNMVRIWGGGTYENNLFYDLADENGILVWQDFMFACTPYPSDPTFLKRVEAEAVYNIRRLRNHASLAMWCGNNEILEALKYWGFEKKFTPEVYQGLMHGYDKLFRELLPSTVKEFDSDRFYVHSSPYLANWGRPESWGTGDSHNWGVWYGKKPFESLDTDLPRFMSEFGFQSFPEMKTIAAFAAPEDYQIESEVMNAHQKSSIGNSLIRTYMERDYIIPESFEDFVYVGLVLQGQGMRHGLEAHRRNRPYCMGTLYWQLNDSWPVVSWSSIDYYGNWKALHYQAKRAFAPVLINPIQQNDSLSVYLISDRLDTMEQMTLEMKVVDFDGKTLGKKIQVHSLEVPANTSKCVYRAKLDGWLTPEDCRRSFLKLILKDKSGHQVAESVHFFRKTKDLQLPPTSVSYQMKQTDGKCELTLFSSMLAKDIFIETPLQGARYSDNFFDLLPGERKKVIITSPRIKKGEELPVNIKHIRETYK

Take `C[C@@H](O)[C@H]1NC[C@@H](O)[C@@H](O)[C@@H]1O` [compound 1, 6R-methyl-1-deoxymannojirimycin]: the Ki was 14 ± 1 mM.
On to `C[C@H](O)[C@H]1NC[C@@H](O)[C@@H](O)[C@@H]1O` [compound 2, 6S-methyl-1-deoxymannojirimycin], for which the Ki is 1.4 ± 0.2 mM.
